Laboratory results reported in US20260354380A1, “PYRAZOLO PESTICIDAL COMPOUNDS” (BASF SE, priority 2022, published 2026).

Assays:
Format in all cases: in vivo
Aedes aegypti = assay: whole plant or invertebrate; details: for mortality in comparison with untreated controls: 800 ppm, larvae, 2 days; for mortality at 800 ppm: Aedes aegypti, 48 h, read-out: mortality in comparison with untreated controls
In short: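 Freshly hatched larvae (5-15 per well) were held in tap water, and compounds formulated in 25% DMSO/water were sprayed onto diet at several concentrations in duplicate. Larval mortality was scored visually after 2 days at 28±1 °C, 80±5% RH.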

Spodoptera eridania = assay: Action on Southern Armyworm (Spodoptera eridania), 2nd Instar Larvae; details: for mortality in comparison with untreated controls / mortality at 300 ppm: 300 ppm, 2nd instar larvae, 4 days after treatment; for mortality at 300 ppm: read-out: mortality in comparison with untreated controls
In short: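 Compounds in 50% acetone/water with 0.01% nonionic surfactant sprayed electrostatically onto Lima bean plants at 1st true leaf stage. After drying, 10–11 2nd-instar larvae bagged with each pot, kept about 25 °C, 20–40% RH. Mortality and reduced feeding scored at 4 days vs untreated plants.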

Plutella xylostella [1] = assay: Action on Diamond Back Moth (Plutella xylostella), cabbage leaf dip, 3rd instar larvae; details: for mortality in comparison with untreated controls / mortality at 300 ppm: 300 ppm, 3rd instar larvae, 72 hours after treatment; for mortality at 300 ppm: read-out: mortality in comparison with untreated controls
In short: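 Cabbage leaves dipped in compound solution (1:1 water:acetone, 0.01% v/v surfactant), air-dried, then infested with ten 3rd-instar larvae in petri dishes on moist filter paper. Mortality scored at 72 h after treatment; feeding damage rated on a 0–100% scale.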

Dichromothrips corbetti = assay: Action on Orchid Thrips (Dichromothrips corbetti); details: 300 ppm, adults, 72 hours after treatment; for mortality at 300 ppm: Dichromothrips corbetti, read-out: mortality in comparison with untreated controls
Experimental: Example B2: Action on Orchid Thrips (Dichromothrips corbetti)
Dichromothrips corbetti adults used for bioassay were obtained from a colony maintained continuously under laboratory conditions. For testing purposes, the test compound is diluted in a 1:1 mixture of acetone: water (vol: vol), plus Kinetic® HV at a rate of 0.01% v/v.
Thrips potency of each compound was evaluated by using a floral-immersion technique. All petals of individual, intact orchid flowers were dipped into treatment solution and allowed to dryin Petri dishes. Treated petals were placed into individual re-sealable plastic along with about 20 adult thrips. All test arenas were held under continuous light and a temperature of about 28 °C for duration of the assay. After 3 days, the numbers of live thrips were counted on each petal. The percent mortality was recorded 72 hours after treatment.

Anthonomus grandis = assay: Action on Boll Weevil (Anthonomus grandis); details: 800 ppm, egg and larval mortality, 5 days; for mortality at 800 ppm: Anthonomus grandis, 120 h, read-out: mortality in comparison with untreated controls
In short: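 Compounds in 75:25 water:DMSO sprayed at several concentrations onto insect diet in microtiter wells holding 5-10 eggs, two replicates. Plates kept 5 days at about 25±1 °C and 75±5% RH; egg and larval mortality scored visually.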

Heliothis virescens = assay: Action on Tobacco Budworm (Heliothis virescens); details: 800 ppm, egg and larval mortality, 5 days; for mortality at 800 ppm: Heliothis virescens, 120 h, read-out: mortality in comparison with untreated controls
In short: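 Compounds in 25% DMSO/75% water were sprayed at several concentrations onto insect diet in microtiter wells holding 15-25 eggs, two replications. After 5 days at about 28±1 °C and 80±5% RH, egg and larval mortality was scored visually.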

Plutella xylostella [2] = assay: Action on Diamond Back Moth (Plutella xylostella), microtiter plates, insect diet, eggs; details: 800 ppm; egg and larval mortality; 5 days
In short: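 Diet in 96-well plates with 15–25 P. xylostella eggs, sprayed with compound formulated in 75% water/25% DMSO at several concentrations, two replicates; mixtures combined in equal volumes. Incubated 5 days at 28±1 °C, 80±5% RH, then egg and larval mortality scored visually.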

Row | SMILES | mortality in comparison with untreated controls (Aedes aegypti) | mortality in comparison with untreated controls (Spodoptera eridania) | mortality in comparison with untreated controls (Plutella xylostella [1]) | mortality in comparison with untreated controls (Dichromothrips corbetti) | mortality in comparison with untreated controls (Anthonomus grandis) | mortality in comparison with untreated controls (Heliothis virescens) | mortality at 800 ppm (Aedes aegypti) [%] | mortality at 300 ppm (Spodoptera eridania; Spodoptera eridania, 96 h) [%] | mortality at 10 ppm (Spodoptera eridania; Spodoptera eridania, 96 h, Table R-1 comparative data, dose 10 ppm, test species PRODER, procedure analogous to B7) [%] | mortality at 10 ppm (Plutella xylostella [1]; Plutella xylostella, foliar, 72 h, Table R-1 comparative data, dose 10 ppm, test species PLUTMA, procedure analogous to B6) [%] | mortality at 300 ppm (Plutella xylostella [1]; Plutella xylostella, foliar) [%] | mortality at 300 ppm (Dichromothrips corbetti) [%] | mortality at 800 ppm (Anthonomus grandis) [%] | mortality at 800 ppm (Heliothis virescens) [%] | mortality in comparison with untreated controls (Plutella xylostella [2])
1 | Cc1nn(-c2ccc(NC(=O)/N=C3\SCC(=O)N3c3cc(N(C)C)ccc3C(C)C)cc2)c(C)c1NC(=O)c1ccc(OC(F)(F)F)cc1 [Example C-17] | at least 50% | at least 75% | at least 75% | at least 75% | at least 75% | at least 75% | – | – | – | – | – | – | – | – | –
2 | CCN(C(=O)c1ccc(OC(F)(F)F)cc1)c1c(C)nn(-c2ccc(NC(=O)/N=C3\SCC(=O)N3c3cc(C)ccc3C(C)C)c(Cl)c2)c1C [Example C-97] | at least 50% | at least 75% | at least 75% | at least 75% | at least 75% | at least 75% | – | – | – | – | – | – | – | – | –
3 | Cc1ccc(C(C)C)c(N2C(=O)CSC2=NC(=O)Nc2ccc(-n3cc(NC(=O)c4ccc(OC(F)(F)F)cc4)c(C)n3)cc2)c1 [Example C-9] | at least 50% | at least 75% | at least 75% | at least 75% | at least 75% | at least 75% | – | – | – | – | – | – | – | – | –
4 | Cc1nn(-c2ccc(NC(=O)/N=C3\SCC(=O)N3c3cc(C4CC4)ccc3C(C)C)c(F)c2)cc1NC(=O)c1ccc(OC(F)(F)F)cc1 [Example C-7] | at least 50% | at least 75% | at least 75% | at least 75% | at least 75% | at least 75% | – | – | – | – | – | – | – | – | –
5 | Cc1ccc(C(F)(F)F)c(N2C(=O)CSC2=NC(=O)Nc2ccc(-n3cc(N(C)C(=O)c4ccc(OC(F)(F)F)cc4)c(C)n3)cc2)c1 [Example C-11] | at least 50% | at least 75% | at least 75% | at least 75% | at least 75% | at least 75% | – | – | – | – | – | – | – | – | –
6 | Cc1ccc(C(C)C)c(N2C(=O)CS/C2=N\C(=O)Nc2ccc(-n3cc(N(C)C(=O)c4ccc(OC(F)(F)F)cc4)c(C)n3)cc2)c1 [Example C-2, N-[1-[4-[[(Z)-[3-(2-isopropyl-5-methyl-phenyl)-4-oxo-thiazolidin-2-ylidene]carbamoyl]amino]phenyl]-3-methyl-pyrazol-4-yl]-N-methyl-4-(trifluoromethoxy)benzamide] | – | – | – | – | – | – | ≥ 50 | ≥ 75 | 82.5 | 100 | ≥ 75 | ≥ 75 | ≥ 75 | ≥ 75 | –
7 | Cc1ccc(C(C)C)c(N2C(=O)CS/C2=N\C(=O)Nc2ccc(-n3nc(C)c(NC(=O)c4ccc(OC(F)(F)F)cc4)c3C)nc2)c1 [Example C-22] | – | at least 75% | at least 75% | at least 75% | – | – | – | – | – | – | – | – | – | – | –
8 | Cc1ccc(C(C)C)c(N2C(=O)CS/C2=N\C(=O)Nc2ccc(-n3nc(C)c(NC(=O)c4ccc(OC(F)(F)F)cc4)c3C)cc2Br)c1 [Example C-19] | at least 50% | at least 75% | at least 75% | at least 75% | at least 75% | at least 75% | – | – | – | – | – | – | – | – | –
9 | Cc1ccc(C(C)C)c(N2C(=O)CS/C2=N\C(=O)Nc2ccc(-n3cc(NC(=O)c4cc(F)c(F)c(F)c4)c(C)n3)cc2)c1 [Example C-23] | at least 50% | at least 75% | at least 75% | at least 75% | at least 75% | at least 75% | – | – | – | – | – | – | – | – | –
10 | Cc1nn(-c2ccc(NC(=O)N=C3SCC(=O)N3c3cc(C#N)ccc3C(C)C)cc2)cc1NC(=O)c1ccc(OC(F)(F)F)cc1 [Example C-10] | at least 50% | at least 75% | at least 75% | at least 75% | at least 75% | at least 75% | – | – | – | – | – | – | – | – | –
11 | COc1ccc(C(C)C)c(N2C(=O)CSC2=NC(=O)Nc2ccc(-n3nc(C)c(NC(=O)c4ccc(OC(F)(F)F)cc4)c3C)cc2Cl)c1 [Example C-44] | at least 50% | – | at least 75% | at least 75% | at least 75% | at least 75% | – | – | – | – | – | – | – | – | –
12 | Cc1ccc(C(C)C)c(N2C(=O)CS/C2=N\C(=O)Nc2ccc(-n3cc(NC(=O)c4ccc(OC(F)(F)F)cc4)c(C)n3)cc2C)c1 [Example C-1, N-[1-[4-[[(Z)-[3-(2-isopropyl-5-methyl-phenyl)-4-oxo-thiazolidin-2-ylidene]carbamoyl]amino]-3-methyl-phenyl]-3-methyl-pyrazol-4-yl]-4-(trifluoromethoxy)benzamide] | – | – | – | – | – | – | ≥ 50 | ≥ 75 | – | – | ≥ 75 | ≥ 75 | ≥ 75 | ≥ 75 | –
13 | Cc1ccc(C(C)C)c(N2C(=O)CSC2=NC(=O)Nc2ccc(-n3nc(C)c(NC(=O)c4ccc(Cl)c(C#N)c4)c3C)cc2)c1 [Example C-118] | – | – | at least 75% | – | at least 75% | – | – | – | – | – | – | – | – | – | at least 75%
14 | Cc1ccc(C(C)C)c(N2C(=O)CS/C2=N\C(=O)Nc2ccc(-n3nc(C)c(NC(=O)c4ccc(Cl)c(Cl)c4)c3C)cc2Cl)c1 [Example C-102] | at least 50% | at least 75% | – | – | at least 75% | at least 75% | – | – | – | – | – | – | – | – | at least 75%
15 | Cc1ccc(C(C)C)c(N2CCSC2=NC(=O)Nc2ccc(-n3nc(C)c(NC(=O)c4ccc(OC(F)(F)F)cc4)c3C)cc2Cl)c1 [Example C-128] | at least 50% | at least 75% | – | – | at least 75% | at least 75% | – | – | – | – | – | – | – | – | at least 75%
16 | Cc1ccc(C(C)C)c(N2C(=O)CS/C2=N\C(=O)Nc2cc(Cl)c(-n3nc(C)c(NC(=O)c4ccc(OC(F)(F)F)cc4)c3C)cc2C)c1 [Example C-98] | at least 50% | at least 75% | – | – | at least 75% | at least 75% | – | – | – | – | – | – | – | – | at least 75%
17 | Cc1ccc(C(C)C)c(N2C(=O)CSC2=NC(=O)Nc2ccc(-n3nc(C)c(NC(=O)c4ccc(OC(F)(F)F)cc4)c3C)c(Cl)c2)c1 [Example C-45] | at least 50% | at least 75% | – | – | at least 75% | at least 75% | – | – | – | – | – | – | – | – | at least 75%
